Measured values taken from BindingDB's records for doi:10.1021/jm960594+ (Nippon Zoki Pharmaceutical, 1997).

Each compound was assayed against T1, Aldo-keto reductase family 1 member A1 (Rattus norvegicus, UniProt P51635) (assay: In vitro inhibitory activity against rat kidney aldehyde reductase(ALR).).
T1 sequence (P51635 whole entry): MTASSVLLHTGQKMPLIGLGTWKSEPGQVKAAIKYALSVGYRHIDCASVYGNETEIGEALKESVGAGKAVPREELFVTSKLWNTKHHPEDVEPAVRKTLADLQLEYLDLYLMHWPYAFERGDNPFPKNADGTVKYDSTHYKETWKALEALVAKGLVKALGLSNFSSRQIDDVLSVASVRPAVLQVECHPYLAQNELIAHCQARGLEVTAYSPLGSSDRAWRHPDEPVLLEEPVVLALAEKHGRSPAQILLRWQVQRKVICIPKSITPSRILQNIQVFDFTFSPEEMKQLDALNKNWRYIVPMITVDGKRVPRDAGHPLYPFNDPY

Row | IC50 [µM] | SMILES
1 | > 100 | O=C(O)Cn1c(O)c(O)n(Cc2cccc([N+](=O)[O-])c2)c1=O
2 | > 100 | O=C(O)Cn1c(=O)cc(O)n(Cc2cccc([N+](=O)[O-])c2)c1=O [[3-(3-Nitro-benzyl)-2,4,6-trioxo-tetrahydro-pyrimidin-1-yl]-acetic acid]
3 | > 100 | O=C(O)Cn1cc(O)n(Cc2cccc([N+](=O)[O-])c2)c1=O [[3-(3-Nitro-benzyl)-2,4-dioxo-imidazolidin-1-yl]-acetic acid]
4 | > 100 | O=C(O)Cn1c(O)cn(Cc2cccc([N+](=O)[O-])c2)c1=O [[3-(3-Nitro-benzyl)-2,5-dioxo-imidazolidin-1-yl]-acetic acid]
